Reference: PMC8122956, “Development of a Robust High-Throughput Screening Platform for Inhibitors of the Striatal-Enriched Tyrosine Phosphatase (STEP)” (International Journal of Molecular Sciences, 2021)

What was measured:
[1] = molecular target: T1, Human PTP1B catalytic domain (1-300) (Homo sapiens, UniProt P18031); experiment: PTP1B Michaelis-Menten kinetic assay with DiFMUP; format: biochemical; conditions: PTP1B 0.5 nM
T1 construct: Human PTP1B catalytic domain (1–300) was cloned into PET-15b; His tag (pET-15b) (N); made in house; host or cells: E. coli (as for STEP46, BL21 (DE3))
T1 sequence (P18031 1-300): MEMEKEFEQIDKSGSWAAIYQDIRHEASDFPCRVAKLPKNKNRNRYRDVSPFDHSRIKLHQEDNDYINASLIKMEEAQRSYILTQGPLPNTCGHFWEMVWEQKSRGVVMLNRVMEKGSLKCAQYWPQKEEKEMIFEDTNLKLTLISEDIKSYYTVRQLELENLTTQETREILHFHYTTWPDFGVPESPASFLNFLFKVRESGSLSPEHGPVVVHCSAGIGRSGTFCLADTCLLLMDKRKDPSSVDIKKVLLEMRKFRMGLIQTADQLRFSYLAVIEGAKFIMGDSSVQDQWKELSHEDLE
Method: Human STEP46 and PTP1B activity was measured at room temperature (RT) in a 384-well plate format standard phosphatase fluorescence intensity assay using DiFMUP as a substrate and a total reaction volume of 25 μL. PTP working solutions were prepared at a 0.625 nM concentration (for a final concentration of 0.5 nM) in buffer containing 50 mM Bis-Tris pH 6.0, 50 mM NaCl, 5 mM DTT, and 0.01% Tween® 20. DiFMUP working solutions at 5X final concentration were prepared in 50 mM Bis-Tris pH 6.0, 50 mM NaCl, and 0.01% Tween 20. […] Fluorescence intensity was measured in kinetic mode (every minute for 10 min) using a Tecan Spark® Multimode Microplate Reader (Tecan, Groedig, Austria) with an excitation wavelength of 360 nm and an emission wavelength of 460 nm. The initial rates were determined from the linear progress curves of the PTP reaction. […] Michaelis–Menten plots were generated for each PTP construct, and Michaelis–Menten constants (Km) were calculated using the program GraphPad Prism (version 8, GraphPad Software, Inc., San Diego, CA, USA).

[2] = molecular target: T2, full-length human STEP46 (Homo sapiens, UniProt P54829); experiment: STEP46 biochemical inhibition assay (DiFMUP phosphatase fluorescence intensity assay); conditions: powder-confirmed hits, 10-pt dose-response, 0.5 nM STEP46, DiFMUP 3 μM, 20 min preincubation, pH 6.0, RT
T2 construct: Codon-optimized human full-length STEP46 cDNA was synthesized; His tag (pET-15b) (N); made in house; host or cells: E. coli BL21 (DE3)
T2 sequence (P54829 173-541 isoform P54829-3 limits assumed): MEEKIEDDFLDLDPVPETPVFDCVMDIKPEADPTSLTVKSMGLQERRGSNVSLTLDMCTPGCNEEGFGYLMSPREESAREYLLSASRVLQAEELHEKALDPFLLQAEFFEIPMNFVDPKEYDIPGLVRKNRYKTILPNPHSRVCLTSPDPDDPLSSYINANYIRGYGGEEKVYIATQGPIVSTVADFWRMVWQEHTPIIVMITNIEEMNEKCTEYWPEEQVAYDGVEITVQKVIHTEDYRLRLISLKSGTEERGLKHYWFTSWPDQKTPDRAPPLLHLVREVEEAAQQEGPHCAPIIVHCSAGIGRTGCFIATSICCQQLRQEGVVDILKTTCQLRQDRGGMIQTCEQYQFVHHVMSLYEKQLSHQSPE
Text: Employing the established STEP46 DiFMUP assay to determine enzymatic activity, we tested the 72 confirmed hits in 10-pt dose-response biochemical inhibition experiments. […] This rate of biochemically active compounds from confirmed PTS hits was in agreement with our prior experience from a similar PTS screening campaign against the SHP2 phosphatase (unpublished data). Next, we obtained commercial dry powders of the 17 biochemically active hits to confirm their activity from pure, fresh material. Powders were quality controlled using standard ^1H-NMR and LC-MS methods and repurified in cases where purity was determined to be below 95%. Pure powders were then retested in 10-pt dose-response STEP46 inhibition assays. Activity could be confirmed for 10 of the 17 powders.
(§1) Hit compounds were tested at room temperature (RT) in a 384-well plate format standard phosphatase fluorescence intensity assay using DiFMUP as a substrate and a total reaction volume of 25 μL. Compounds or vehicle (DMSO) were spotted in triplicate into a black Greiner FLUOTRAC 200 384-well microplate for a 10-point dose-response assay using the Echo 555 liquid handler. PTP working solutions were prepared at a 0.625 nM concentration (for a final concentration of 0.5 nM) in buffer containing 50 mM Bis-Tris pH 6.0, 50 mM NaCl, 5 mM DTT, and 0.01% Tween 20. DiFMUP working solutions at 5X final concentration were prepared in 50 mM Bis-Tris pH 6.0, 50 mM NaCl, and 0.01% Tween 20. PTP working solution (20 μL) was dispensed into the microplate and incubated with compound for 20 min at RT. […] The reaction was initiated by addition of 5 μL DiFMUP working solutions. Fluorescence intensity was measured in a kinetic mode as described above. IC50 values were calculated from the corrected initial rates by nonlinear regression using the program GraphPad Prism (version 8, GraphPad Software, Inc., San Diego, CA, USA).

[3] = molecular target: T1, Human PTP1B catalytic domain (1-300); experiment: PTP1B biochemical inhibition assay (DiFMUP phosphatase fluorescence intensity assay); conditions: powder-confirmed hits, 10-pt dose-response, 0.5 nM PTP1B, DiFMUP 25 μM, 20 min preincubation, pH 6.0, RT
Method: One of the major issues in prior STEP HTS campaigns using phosphatase activity as a readout was the lack of potent chemical matter with relative selectivity for STEP (PubChem AID: 588,619 and our unpublished data). […] For these assays, we expressed and purified the catalytic domain of PTP1B (1-300) using an approach similar to the one described for STEP46 above. The enzymatic activity of the highly pure PTP1B was assessed by adapting the DiFMUP phosphatase assay. Similar to STEP46, a concentration of 0.5 nM PTP1B was found optimal for kinetic experiments. […] Using DiFMUP at that concentration, we tested all 10 powder-confirmed hits in 10-pt dose-response inhibition assays against PTP1B.
as §1

[4] = tested on: AD mice; parameters: method as in PMID 25093460; conditions: cited from earlier work

SMILES | Km [1] | IC50 [2] | IC50 [3] | Effect on cognitive deficits in AD mice [4]
Cc1cc(=O)oc2c(F)c(OP(=O)(O)O)c(F)cc12 [DiFMUP, 6,8-difluoro-4-methylumbelliferyl phosphate] | 25 µM | – | – | –
Cc1ccc(Nc2nc(CSc3nnnn3-c3ccccc3)cc(=O)[nH]2)cc1 [SBI-0738] | – | 5.7 µM | 6.1 µM | –
Cc1c2c(=O)n(-c3nc4ccccc4s3)[nH]c2cc(=O)n1CCC(C)C [SBI-0743] | – | 5.5 µM | 22 µM | –
O=C(CSc1c[nH]nn1)Nc1ccc(/C=C/c2ccccc2)cc1 [SBI-1359] | – | 7 µM | 28 µM | –
NC(=O)c1cccc(NC(=O)c2cc3c(ccc4ccccc43)o2)c1 [SBI-2136] | – | 5.3 µM | 14 µM | –
Nc1oc2cc(O)ccc2c(=O)c1-c1nc2ccccc2s1 [SBI-6066] | – | 5 µM | > 100 µM | –
Cc1cc(C)cc(C(=O)Nc2ccc(-c3nc4ccccc4[nH]3)cc2)c1 [SBI-6083] | – | 5.4 µM | > 100 µM | –
O=C(Cc1ccc(Cl)cc1)Nc1ccc(C(=O)Nc2cccc(O)c2)cc1 [SBI-6727] | – | 18 µM | 57 µM | –
N#Cc1sc2nc(-c3ccc4c(c3)OCO4)ccc2c1N [SBI-7297] | – | 32 µM | > 100 µM | –
COc1ccccc1-c1ccc2c(N)c(C#N)sc2n1 [SBI-8771] | – | 16 µM | 79 µM | –
Nc1ccc(NCC2CCCO2)c(C(=O)O)c1 (stereo not shown) [SBI-8929] | – | 33 µM | 20 µM | –
Nc1cc(C(F)(F)F)cc2c1SSSSS2 [TC-2153] | – | – | – | effectively reversed cognitive deficits
